Data on nine molecules can be found in patent US11174282B2, “Aminosteroid derivatives and process for producing same” (UNIVERSITÉ LAVAL, priority 2016, dated 2021).

The structures appear in SMILES notation. “Also recorded” adds a separate entry of the source. Like-named read-outs stand apart in the source and are kept apart here.

In data set [1] the test system is PANC-1, BxPC-3, Hs766, OVCAR-3, Caov3, SKOV3, MCF-7, T-47D and LAPC-4 cell lines. Description: Cytotoxic activity screening at 5 and 1 μM on cancer cell lines. As to conditions: independently of the cancer cell line tested, result in words.
Procedure: The cell proliferation assay was performed using 3-(4,5-dimethylthiazol-2-yl)-5-(3-carboxymethoxyphenyl)2-(4-sulfophenyl)-2H-tetrazolium (MTS) (Cell Titer 96 Aqueous, Promega, Nepean, ON, Canada) as previously described [3, 4, 5]. Briefly, cells were plated in triplicate in 96-well plates (1×10^4 cells/well) in appropriate culture medium (total of 90 μL). Before each treatment, the cells were incubated at 37° C. in a 5% CO2 humidified atmosphere for 24 h. The different aminosteroids were dissolved in methanol (50 mM). The stock solutions were diluted at multiple concentrations with culture media in order to obtain the desired final concentration followed by the addition of 10 μL to each well, and the mixture incubated for 3 days. Following treatment, MTS (10 μL) was added to each well and the mixture was incubated for 4 h.
Data set [2] deals with renal proximal tubule epithelial cells (RPTEC). Put plainly: Toxicity on normal cells (MTS), RPTEC. In kind it is cell-based, human. How it is done: (§1) The different aminosteroids were dissolved in methanol (50 mM).
In data set [3] the test system is primary pancreas normal cells. Put plainly: Toxicity on normal cells (MTS), primary pancreas. The data set is classed as cell-based, human. The following applies: for Selectivity Index Pancreas: IC50 normal cells/IC50 cancer cells (primary pancreas / PANC-1); for IC50: human normal cells. The method, then: as §1
Data set [4] deals with primary pancreas, primary ovary and renal proximal tubule epithelial cells (RPTEC). Put plainly: Toxicity on the normal cell types tested. The following applies: higher concentration tested 50 μM.
Procedure: Human primary epithelial pancreas and ovary cells were obtained from Cedarlane (Chicago, Ill., USA) and were cultured in the manufacturer recommended medium. Human renal proximal tubule epithelial cells (RPTEC) were obtained from Lonza (Mississauga, ON, Canada) and were maintained in DMEM-F12 supplemented as previously reported [4]. The cell lines were all maintained under a 5% CO2 humidified atmosphere at 37° C. and the culture medium was changed every 2 to 3 days and the cells were split once a week to maintain cell propagation.
The cell proliferation assay was performed using 3-(4,5-dimethylthiazol-2-yl)-5-(3-carboxymethoxyphenyl)2-(4-sulfophenyl)-2H-tetrazolium (MTS) (Cell Titer 96 Aqueous, Promega, Nepean, ON, Canada) as previously described [3, 4, 5]. Briefly, cells were plated in triplicate in 96-well plates (1×10^4 cells/well) in appropriate culture medium (total of 90 μL). Before each treatment, the cells were incubated at 37° C. in a 5% CO2 humidified atmosphere for 24 h. The different aminosteroids were dissolved in methanol (50 mM). The stock solutions were diluted at multiple concentrations with culture media in order to obtain the desired final concentration followed by the addition of 10 μL to each well, and the mixture incubated for 3 days. Following treatment, MTS (10 μL) was added to each well and the mixture was incubated for 4 h. […] Selectivity was calculated by dividing the IC50 obtained for a specific primary cell by the IC50 for the related cancer cell line.
The subject of data set [5] is Human pancreas cancer cells (PANC-1). Put plainly: Cell proliferation assay (MTS), PANC-1. In kind it is cell-based. As to conditions: for IC50: read-out: IC50 (μM) Pancreatic cancer PANC-1; for antiproliferative activity relative to RM-133, PANC-1: fold of RM-133 activity (>1 = more active). The method, then:
as §1

The test system of data set [6] is OVCAR-3 cells (ovarian cancer). Description: Cell proliferation assay (MTS), OVCAR-3. As to conditions: for IC50: read-out: IC50 (μM) Ovarian cancer OVCAR-3; for antiproliferative activity relative to RM-133, OVCAR-3: fold of RM-133 activity (>1 = more active). In kind it is cell-based. How it is done:
as §1

For data set [7], the system named is HL-60 (acute promyelocytic leukemia) cells. Put plainly: Cell proliferation assay (MTS), HL-60. In kind it is cell-based. As to conditions: for IC50: read-out: IC50 (μM) HL-60 (leukemia); for antiproliferative activity relative to RM-133, HL-60: fold of RM-133 activity (>1 = more active). The method, then: as §1
A short description of data set [8]: Metabolic stability assay, human liver microsomes. As to conditions: 1 h; for increased metabolic stability relative to RM-133: human hepatic microsomes; for metabolic stability (% of remaining compound): 10 μM, 40 μg human liver microsomes, result in words. For orientation: Liver microsomes are vesicles of endoplasmic reticulum, rich in cytochrome P450 enzymes.
Procedure: (§2) Assays were performed at 37° C. for 1 h, with or without 10 mM NADPH in the presence of 40 μg of human liver microsome from Corning (Melrose, Mass., USA) and 10 μM of aminosteroid substrate in a final 100 μL volume of 50 mM Tris buffer (pH 7.4) supplemented with 10 mM MgCl2. Assays were ended by adding 100 μL of MeOH followed by centrifugation at 13,000 g for 10 min to obtain a pellet of proteins. The supernatant of 2 assays was pooled and submitted to HPLC-MS analysis (Shimadzu LCMS-2020 APCI, Alltima HP C18 (250 mm×4.6 mm, 5 μm) column, MeOH:H2O gradient). Remaining substrate (expressed in %) was calculated by dividing the area under the curve of the substrate for the assays without NADPH by the area under the curve of the substrate for the assays with NADPH and multiplied by 100. Values represent the average of 2 independent experiments.

For data set [9], the system named is primary ovary normal cells. Put plainly: cells. The data set is classed as cell-based, human. The following applies: for Selectivity Index Ovary: IC50 normal cells/IC50 cancer cells (primary ovary / OVCAR-3). How it is done:
as §1

Data set [10] relates to LAPC-4 (prostate cancer) cells. Description: Cell proliferation assay (MTS), LAPC-4. The data set is classed as cell-based. As to conditions: read-out: IC50 (μM) Prostate cancer LAPC-4. The method, then:
as §1

Data set [11] deals with LNCaP (prostate cancer) cells. Description: Cell proliferation assay (MTS), LNCaP. The data set is classed as cell-based. The following applies: Homo sapiens, 72 h, 3 days treatment, MTS, read-out: IC50 (μM) Prostate cancer LNCaP. The method, then: as §1
The test system of data set [12] is MCF-7 breast cancer cells. Put plainly: Cell proliferation assay (MTS), MCF-7. In kind it is cell-based, human. The following applies: Homo sapiens, MCF7, 72 h, 3 days treatment. How it is done: as §1
For data set [13] the following is noted: human, 1 h, 10 μM, pH 7.4.
Procedure: as §2
In data set [14] the test system is PC-3 (prostate cancer) cells. Put plainly: Cell proliferation assay (MTS), PC-3. In kind it is cell-based. The following applies: 72 h; 3 days treatment, MTS; read-out: IC50 (μM) Prostate cancer PC-3. The method, then: as §1
Data set [15] has as its system T-47D breast cancer cell line. Put plainly: Cell proliferation assay (MTS), T-47D. The data set is classed as cell-based. The following applies: Homo sapiens, T47D, 72 h; 3 days treatment, MTS. How it is done: as §1
[16] abbreviates: human normal cells, read-out: IC50 (μM) Primary Ovary (normal cells).
The mark [17] stands for this setting: Homo sapiens, OVCAR-3, 72 h, 3 days treatment, MTS.
[18] abbreviates: Homo sapiens, HL-60, 72 h, 3 days treatment, MTS.
Where [19] appears, read: Homo sapiens, PANC-1, 72 h, 3 days treatment, MTS.

`C#Cc1cc2c(cc1N1CCN(C(=O)[C@@H]3CCCN3C(=O)c3ccc4ccccc4n3)CC1)[C@H]1CC[C@@]3(C)[C@@H](CC[C@@]3(O)C#C)[C@@H]1CC2` [Compound 17a, {4-[(17β)-3,17-diethynyl-17-hydroxyestra-1,3,5(10)-trien-2-yl]piperazin-1-yl}[(2S)-1-(quinolin-2-ylcarbonyl)pyrrolidin-2-yl]methanone]: the “cytotoxic activity in screening (cell survival)” value (“cytotoxic activity in screening” below) in data set [1] was “only slight differences in their respective levels of activity”.

The IC50 is the concentration needed to halve the response being measured. As for `C#C[C@@]1(O)CC[C@H]2[C@@H]3CC[C@H]4C[C@H](OC(C)=O)[C@H](N5CCN(C(=O)[C@@H]6CCCN6C(=O)c6ccc7ccccc7n6)CC5)C[C@]4(C)[C@H]3CC[C@@]21C` [4 (3-ester), (2α,3α,5α,17α)-17-hydroxy-2-{4-[1-(quinolin-2-ylcarbonyl)-L-prolyl]piperazin-1-yl}pregn-20-yn-3-yl acetate], the IC50 in data set [2] (normal (kidney) cells, read-out: IC50 (μM) RPTEC (normal cells)) was determined as 32.1 µM; in [3], 30.1 µM; in data set [5] (3 days treatment, MTS), 6.24 µM; in data set [6] (3 days treatment, MTS), 3.83 µM; in data set [7] (3 days treatment, MTS), 6.44 µM; in data set [9] (setting [16]), 42 µM. Besides, the “Selectivity Index Pancreas” value in data set [3] is recorded as 4.8. Further, the “toxicity on the normal cell types tested” value in [4] is on record as “very low toxicity”. The “antiproliferative activity relative to RM-133, PANC-1” value in data set [5] is reported as 1.1 fold. In addition, the “antiproliferative activity relative to RM-133, OVCAR-3” value in data set [6] is recorded as 1.4 fold. Further, in [7], the “antiproliferative activity relative to RM-133, HL-60” value is reported as 1.1 fold. Also, the “increased metabolic stability relative to RM-133” value in [8] stood at 3.1 fold. In addition, in [9], the “Selectivity Index Ovary” value came out at 11.0.

As for `C#CC1(O)CCC2C3CCC4CC(O)C([N+]5([O-])CCN(C(=O)C6CCCN6C(=O)c6ccc7ccccc7n6)CC5)CC4(C)C3CCC21C` [7 (N-oxime), {4-[(2β,3α,5α,17α)-3,17-dihydroxypregn-20-yn-2-yl]-4-oxidopiperazin-1-yl}[(2S)-1-(quinolin-2-ylcarbonyl)pyrrolidin-2-yl]methanone], the IC50 in [5] (3 days treatment, MTS) was > 50 µM; in data set [6] (3 days treatment, MTS) it was 29.9 µM; in data set [7] (3 days treatment, MTS), 43.7 µM. For the same molecule, in [5], the “antiproliferative activity relative to RM-133, PANC-1” value is “significant loss of activity”. The “antiproliferative activity relative to RM-133, OVCAR-3” value in data set [6] was “significant loss of activity”. In addition, in data set [7], the “antiproliferative activity relative to RM-133, HL-60” value is listed as “significant loss of activity”. For the same molecule, in data set [8], the “increased metabolic stability relative to RM-133” value is recorded as 2.6 fold.

Consider `C#C[C@@]1(O)CC[C@H]2[C@@H]3CCc4cc(OC(=O)N(C)C)c(N5CCN(C(=O)[C@@H]6CCCN6C(=O)c6ccc7ccccc7n6)CC5)cc4[C@H]3CC[C@@]21C` [Compound 1, (17β)-17-ethynyl-17-hydroxy-2-{4-[1-(quinolin-2-ylcarbonyl)-L-prolyl]piperazin-1-yl}estra-1,3,5(10)-trien-3-yl dimethylcarbamate], for which the IC50 in data set [10] (Homo sapiens, LAPC4, 72 h) was 1.3 µM; in data set [2] (Homo sapiens, RPTEC, read-out: IC50 (μM) Normal Cells Kidney), ≥ 50 µM; in data set [5] (Homo sapiens, PANC-1, 72 h), 9.6 µM; in data set [6] (Homo sapiens, OVCAR-3, 72 h), 6.4 µM; in data set [7] (Homo sapiens, HL-60, 72 h), 4.3 µM; in [9] (Homo sapiens, read-out: IC50 (μM) Normal Cells Ovary) it was ≥ 50 µM. Moreover, the “cytotoxic activity in screening” value in data set [1] was “only slight differences in their respective levels of activity”.

As to `C#C[C@@]1(O)CC[C@H]2[C@@H]3CCc4cc(OC(C)=O)c(N5CCN(C(=O)[C@@H]6CCCN6C(=O)c6ccc7ccccc7n6)CC5)cc4[C@H]3CC[C@@]21C` [Compound 3, (17β)-17-ethynyl-17-hydroxy-2-{4-[1-(quinolin-2-ylcarbonyl)-L-prolyl]piperazin-1-yl}estra-1,3,5(10)-trien-3-yl acetate], the IC50 in data set [10] (3 days treatment, MTS) is 0.6 µM; in data set [10] (Homo sapiens, LAPC4, 72 h, 3 days treatment, MTS), 0.5 ± 0.4 µM; in data set [11], 0.8 ± 0.3 µM; in data set [12], 1.4 ± 0.1 µM; in data set [14] it was 1.4 ± 0.3 µM; in data set [2] (Homo sapiens, RPTEC, relative toxicity on human normal cells, read-out: IC50 (μM) Normal Cells Kidney), ≥ 50 µM. Besides, the IC50 in data set [15] was 0.4 ± 0.2 µM; in data set [6] (3 days treatment, MTS), 3.4 µM; in [6] (setting [17]) it was 3.9 ± 0.4 µM; in data set [7] (setting [18]) it was 4.3 µM; in [9] (relative toxicity on human normal cells, read-out: IC50 (μM) Normal Cells Ovary) it was ≥ 50 µM. Further, the “phenolic metabolite RM-581-OH (stability of potential prodrugs to hydrolysis)” value in [13] is “no trace of the phenolic metabolite RM-581-OH could be observed”. The “toxicity on the normal cell types tested” value in [4] was “did not trigger any loss of cell viability even at concentrations as high as 50 μM”.

As to `C#C[C@@]1(O)CC[C@H]2[C@@H]3CCc4cc(C(C)O)c(N5CCN(C(=O)[C@@H]6CCCN6C(=O)c6ccc7ccccc7n6)CC5)cc4[C@H]3CC[C@@]21C` (stereo partly drawn) [Compound 18, {4-[(17β)-17-ethynyl-17-hydroxy-3-(1-hydroxyethyl)estra-1,35(10)-trien-2-yl]piperazin-1-yl}[(2S)-1-(quinolin-2-ylcarbonyl)pyrrolidin-2-yl]methanone], in [1], the “cytotoxic activity in screening” value was “only slight differences in their respective levels of activity”. Further, the “metabolic stability (% of remaining compound)” value in data set [8] is “slightly lower values”.

For the molecule `C#C[C@@]1(O)CC[C@H]2[C@@H]3CC[C@H]4C[C@H](OC(=O)N(C)C)[C@@H](N5CCN(C(=O)[C@@H]6CCCN6C(=O)c6ccc7ccccc7n6)CC5)C[C@]4(C)[C@H]3CC[C@@]21C` [3 (3-carbamate), (2β,3α,5α,17α)-17-hydroxy-2-{4-[1-(quinolin-2-ylcarbonyl)-L-prolyl]piperazin-1-yl}pregn-20-yn-3-yl dimethylcarbamate], in [13] (microsomes), the “increased metabolic stability relative to RM-133” value is on record as 5.9 fold. In addition, the IC50 in [2] (Homo sapiens, RPTEC, normal (kidney) cells, read-out: IC50 (μM) RPTEC (normal cells)) is 24.2 µM; in data set [3] it was > 50 µM; in data set [5] (setting [19]) it was 9.99 µM; in data set [6] (setting [17]) it was 20 µM; in [7] (setting [18]), 7.95 µM; in data set [9] (setting [16]), > 50 µM. Moreover, the “Selectivity Index Pancreas” value in [3] was >5.0. The “toxicity on the normal cell types tested” value in [4] is on record as “very low toxicity; also recorded: no cytotoxicity was observed”. The “antiproliferative activity relative to RM-133, PANC-1” value in [5] came to 0.7 fold. In addition, the “antiproliferative activity relative to RM-133, OVCAR-3” value in [6] came to 0.3 fold. Also, the “antiproliferative activity relative to RM-133, HL-60” value in data set [7] is 0.9 fold. The “Selectivity Index Ovary” value in data set [9] is >2.5.

For the molecule `C#C[C@@]1(O)CC[C@H]2[C@@H]3CCc4cc(OC(=O)N(CC)CC)c(N5CCN(C(=O)[C@@H]6CCCN6C(=O)c6ccc7ccccc7n6)CC5)cc4[C@H]3CC[C@@]21C` [Compound 2, (17β)-17-ethynyl-17-hydroxy-2-{4-[1-(quinolin-2-ylcarbonyl)-L-prolyl]piperazin-1-yl}estra-1,3,5(10)-trien-3-yl diethylcarbamate], the “cytotoxic activity in screening” value in data set [1] is on record as “marked weaker cytotoxic activity; also recorded: significant losses of activity”.

`CN1CCN(C(=O)[C@@H]2CCCN2C(=O)c2ccc3ccccc3n2)CC1` [10 (side-chain only), (4-methylpiperazin-1-yl)[(2S)-1-(quinolin-2-ylcarbonyl)pyrrolidin-2-yl]methanone]: the IC50 in data set [5] (setting [19]), in data set [6] (setting [17]) and in [7] (setting [18]) was > 50 µM in each case. The “antiproliferative activity relative to RM-133, PANC-1” value in data set [5] is “completely inactive”. In data set [6], the “antiproliferative activity relative to RM-133, OVCAR-3” value was “completely inactive”. In addition, in data set [7], the “antiproliferative activity relative to RM-133, HL-60” value is “completely inactive”. The “metabolic stability (% of remaining compound)” value in data set [8] is reported as “more stable than steroid 12 lacking the 2β-side chain or RM-133 itself”.
